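All cell lines were grown in 96-well plates and treated with compound for 48 hours. GI50 is the concentration that inhibits growth by half. The concentration for full growth arrest is given as TGI.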

Test systems include HCT-15 colon; U251 CNS; UACC-257 melanoma; SNB-19 CNS; NCI-H226 lung; SF-295 CNS; SF-539 CNS; 786-0 renal; SK-OV-3 ovarian; HOP-92 NSCLC.
What all share (assay): NCI-60 cell line screen, 48 h

Regarding `O=C(Nc1ccccc1)NS(=O)(=O)c1ccc(-n2nc3c(c2-c2cccs2)Cc2ccccc2-3)cc1`, the GI50 in the assay on HCT-15 colon was 16.9 µM; with U251 CNS, 22.9 µM; in the assay on UACC-257 melanoma, 17.7 µM; in the assay on SNB-19 CNS, more than 100 µM; in the assay on NCI-H226 lung it was 19.2 µM; in the assay on SF-295 CNS it was 21.9 µM. In addition, the GI50 was 25 µM in the assay on SF-539 CNS, 17.6 µM in the assay with 786-0 renal, 60.8 µM with SK-OV-3 ovarian and 12.3 µM in the assay on HOP-92 NSCLC. Besides, the TGI in the assay on HCT-15 colon is 44.7 µM; in the assay with U251 CNS, 55.3 µM; in the assay on UACC-257 melanoma it was 67.7 µM; in the assay on SNB-19 CNS, more than 100 µM; in the assay with NCI-H226 lung it was 59 µM; in the assay with SF-295 CNS, 73.5 µM. Further, the TGI was 55.5 µM in the assay on SF-539 CNS, 35.2 µM in the assay on 786-0 renal, more than 100 µM with SK-OV-3 ovarian and more than 100 µM in the assay on HOP-92 NSCLC.
Consider `CC(C)=CC(=O)C1c2cccc(O)c2C(=O)c2c(O)cc(C)cc21` (stereo not given), for which the TGI turned out to be 10.6 µM in the assay on HCT-15 colon; 3.82 µM in the assay on U251 CNS; 8.5 µM in the assay on UACC-257 melanoma; 16.3 µM in the assay on SNB-19 CNS; 4.65 µM in the assay with NCI-H226 lung; 3.39 µM with SF-295 CNS. Also, the TGI is 3.04 µM in the assay on SF-539 CNS, 16.1 µM with 786-0 renal, 8.48 µM in the assay on SK-OV-3 ovarian and 7.83 µM in the assay with HOP-92 NSCLC.
`CCOc1ccc(NC(=O)C(=O)CC(=O)c2c[n+](=O)c3cc(C)c(C)cc3n2[O-])cc1`: the TGI in the assay on HCT-15 colon, in the assay on U251 CNS, with UACC-257 melanoma, with SNB-19 CNS, in the assay on NCI-H226 lung and with SF-295 CNS was more than 100 µM throughout. The TGI in the assay on SF-539 CNS, with 786-0 renal, in the assay with SK-OV-3 ovarian and in the assay with HOP-92 NSCLC was more than 100 µM each time.
With `COc1cc(-c2nn(-c3ccc(NC(=O)c4ccc(Cl)c(C(F)(F)F)c4)cc3)cc2-c2ccncc2)ccc1Cl`, the GI50 with HCT-15 colon is 1.42 µM; with U251 CNS it was 2.08 µM; with UACC-257 melanoma, 6.91 µM; in the assay on SNB-19 CNS it was 4.55 µM; in the assay with NCI-H226 lung it was 5.31 µM; in the assay with SF-295 CNS, 0.255 µM. Further, the GI50 is 1.83 µM with SF-539 CNS, 1.2 µM in the assay on 786-0 renal, more than 27.1 µM in the assay on SK-OV-3 ovarian and 2.58 µM with HOP-92 NSCLC. Further, the TGI in the assay with HCT-15 colon was 4.21 µM; with U251 CNS, 56.7 µM; with UACC-257 melanoma it was more than 100 µM; in the assay with SNB-19 CNS, more than 100 µM; in the assay on NCI-H226 lung, more than 100 µM; in the assay on SF-295 CNS, 0.948 µM. Besides, the TGI in the assay with SF-539 CNS was 8.6 µM; with 786-0 renal, 2.86 µM; in the assay on SK-OV-3 ovarian, more than 100 µM; in the assay with HOP-92 NSCLC, 8.81 µM.
`Cn1cc(C2=C(c3cn(C)c4ncccc34)C(=O)NC2=O)c2ccccc21`: the GI50 is 7.34 µM in the assay on HCT-15 colon; 7.27 µM with U251 CNS; 12.8 µM with UACC-257 melanoma; 11.2 µM in the assay with SNB-19 CNS; 5.45 µM with NCI-H226 lung; 7.18 µM in the assay with SF-295 CNS. Besides, the GI50 is 5.35 µM in the assay on SF-539 CNS, 8.72 µM with 786-0 renal, 6.97 µM in the assay with SK-OV-3 ovarian and 7.71 µM in the assay on HOP-92 NSCLC. Besides, the TGI was more than 25 µM with HCT-15 colon; more than 25 µM with U251 CNS; more than 25 µM with UACC-257 melanoma; more than 25 µM in the assay on SNB-19 CNS; 16.5 µM in the assay on NCI-H226 lung; more than 25 µM with SF-295 CNS. In addition, the TGI with SF-539 CNS is 14.3 µM; in the assay on 786-0 renal, more than 25 µM; in the assay on SK-OV-3 ovarian, 21.7 µM; in the assay on HOP-92 NSCLC, more than 22.9 µM.
On to `Cc1cc(I)cc(CN(C)CCCCN2CCCCC2)c1O`, for which the GI50 in the assay with HCT-15 colon is 6.08 µM; in the assay on U251 CNS it was 13.7 µM; with UACC-257 melanoma, 4.2 µM; in the assay on SNB-19 CNS it was 19 µM; in the assay on NCI-H226 lung it was 25.7 µM; in the assay with SF-295 CNS, 3.05 µM. Besides, the GI50 is 12 µM with SF-539 CNS, 12.6 µM in the assay on 786-0 renal, 18.3 µM in the assay with SK-OV-3 ovarian and 6.2 µM with HOP-92 NSCLC. The TGI in the assay on HCT-15 colon was 25.8 µM; with U251 CNS it was 31.2 µM; in the assay with UACC-257 melanoma, 15.1 µM; with SNB-19 CNS, 45.9 µM; in the assay with NCI-H226 lung, more than 100 µM; in the assay on SF-295 CNS, 7.62 µM. Besides, the TGI is 25.1 µM in the assay with SF-539 CNS, 25.4 µM in the assay with 786-0 renal, 42.4 µM in the assay on SK-OV-3 ovarian and 38.2 µM with HOP-92 NSCLC.
With `Nc1ccccc1SC(C[N+](=O)[O-])c1ccc2c(c1)OCO2` (stereo not given), the TGI with HCT-15 colon turned out to be 10.3 µM; with U251 CNS, 8.53 µM; with UACC-257 melanoma, 3.86 µM; in the assay with SNB-19 CNS, 24.3 µM; with NCI-H226 lung, 32.4 µM; in the assay with SF-295 CNS, 18.8 µM. Also, the TGI in the assay on SF-539 CNS was 4.98 µM; with 786-0 renal it was 3.15 µM; with SK-OV-3 ovarian, 15.9 µM; in the assay on HOP-92 NSCLC, 30.2 µM.
On to `Cc1nc2ccccc2c(N)c1-c1cc(C)c2c(C)nc3ccccc3c2n1`, for which the GI50 was 0.216 µM in the assay on HCT-15 colon; 0.288 µM with U251 CNS; 1.79 µM in the assay on UACC-257 melanoma; 1.59 µM with SNB-19 CNS; 1.44 µM in the assay on NCI-H226 lung; 1.34 µM with SF-295 CNS. Also, the GI50 is 1.31 µM in the assay on SF-539 CNS, 1.16 µM in the assay with 786-0 renal, 1.8 µM in the assay with SK-OV-3 ovarian and 1.46 µM in the assay on HOP-92 NSCLC. Further, the TGI in the assay with HCT-15 colon is 0.562 µM; with U251 CNS, 0.959 µM; in the assay on UACC-257 melanoma it was 3.29 µM; in the assay with SNB-19 CNS, 3.39 µM; with NCI-H226 lung, 2.94 µM; with SF-295 CNS, 2.74 µM. In addition, the TGI with SF-539 CNS came out at 2.59 µM; in the assay on 786-0 renal, 2.45 µM; in the assay on SK-OV-3 ovarian, 4.72 µM; in the assay with HOP-92 NSCLC, 3.38 µM.

Source of the values: PubChem BioAssay (NCI).
